Reference: patent US11390629B2, “1,5-disubstituted 1,2,3-triazoles are inhibitors of Rac/Cdc42 GTPases” (UNIVERSITY OF PUERTO RICO, priority 2016, dated 2022)
“And” between values parts separate entries of the source, which are not always exact repeats. Equal entries are not always repeated. “Also recorded” adds a separate entry of the source. Where two headings read alike, the source gives them in different places.

Columns and labels:
[1] = tested on: MDA-MB-231 cells; experiment: Transwell cell migration assay, MDA-MB-231; conditions: 250 and 500 nM, attached population
[2] = tested on: Bcl-2, Bcl-xL, Mcl-1; experiment: Western blot of pro-survival proteins, MDA-MB-231; conditions: 250 nM, 24 h
[3] = tested on: MDA-MB-231 cells; experiment: Bright field microscopy of cell polarity, rounding and detachment, MDA-MB-231; type: cell-based, human
Experimental: (§1) FIGS. 2A, 2B, 2C. Breast cancer cell phenotype following MBQ-167 treatment.
(§2) Human breast cancer cells were visualized by bright field microscopy following MBQ-167 treatment. At ≥100 nM, starting at six hours, MBQ-167 induced a loss of polarity in metastatic breast cancer cells. […] On the other hand, non-cancer mammary epithelial MCF10A and epithelial breast cancer MCF-7 cells were resistant to MBQ-167 and remained polarized and attached to each other and the substratum (FIG. 2A).
FIG. 2A; FIG. 2B. […] At ≥100 nM, starting at six hours MBQ-167 induces a loss of polarity and detachment from the substratum in MDA-MB-231 metastatic breast cancer cells but not in MCF-7 non-metastatic human breast cancer cells. 250 nM MBQ-167 results in ˜70% of the cells losing polarity and assuming a rounded phenotype. Higher concentrations of MBQ-167, i.e. 500 nM for 24 h results in a ˜90% loss in cell polarity and detaches from the substratum.

[4] = tested on: NCI-N87 cells; experiment: MTT viability assay, NCI-N87 gastric cancer cells; type: cell-based, human; conditions: 250 nM
Description: (§3) FIGS. 8A, 8B. The effect of MBQ-167 on survival and PAK activity in NCI-N87 gastric cancer cells.

[5] = tested on: PAK1 and PAK4; experiment: Western blot of PAK activity, NCI-N87 gastric cancer cells; type: cell-based, human; conditions: NCI-N87, 250 or 500 nM; listed as MBQ-167
Description: as §3

[6] = tested on: MCF10A and MCF-7 cells; experiment: Bright field cell phenotype, epithelial cells; type: cell-based, human; conditions: up to 500 nM
Experimental: as §1, §2

[7] = tested on: c-Myc, Bcl-XL, Bcl-2, BAD; experiment: Expression of oncogenes and survival proteins, MDA-MB-435 cells; type: cell-based, human; conditions: 150 nM, 24 h
Description: Studies from a number of cancer types have shown that Rac/Cdc42/PAK signaling can induce cell survival and evade apoptosis. Therefore, the decreased cell viability and increased apoptosis by MBQ-167, at concentrations that inhibit both Rac and Cdc42, is predicted to be due to dual inhibition of Rac and Cdc42 function.

[8] = tested on: MDA-MB-231 cells; experiment: Cell viability assay (CellTiter 96 / MTT), MDA-MB-231
[9] = as above; conditions: human
[10] = tested on: PAK1 and PAK2; experiment: Western blot of PAK signaling (p-PAK, p-LIMK, p-cofilin), MDA-MB-231; type: cell-based, human; conditions: for reduction of PAK activity compared to vehicle: MDA-MB-231 and GFP-HER2-BM
Experimental: To investigate the effect of MBQ-167 on Rac/Cdc42 signaling, its effect on the major Rac/Cdc42 downstream effector PAK was investigated. The phosphorylation status of several PAK residues was analyzed by western blotting, as a measure of its activity. At 250 nM, 24 h treatment with MBQ-167 inhibited PAK1 and PAK2 phosphorylation at the T423/T402 and S199/S192 residues in the detached population of MDA-MB-231 cells. […] Even though PAK1^T423 phosphorylation was not inhibited in the attached cells, the reduction in the homologous PAK2 phosphorylation sites indicates a preferential inhibition of PAK2 in the attached cells (FIGS. 4A-1, 4A-2, FIG. 4B-1). […] The decrease in cofilin phosphorylation was evident after 12 h following 250 nM MBQ-167 (FIG. 4C), indicating activation of cofilin, which account for the observed actin cytoskeletal restructuring (FIG. 2B). […] Similarly, in the NCI-N87 human metastatic gastric cancer cell line, MBQ-167 inhibited the viability and the activity of PAK isoforms PAK1 and PAK4, which have been implicated in gastric cancer malignancy (FIG. 8B).

[11] = Toxicity observation: mouse weight and phenotype; type: in vivo, mice; conditions: 65-day study, 1 and 10 mg/kg BW; listed as MBQ-167
Description: The mice from this study were also examined once a week for potential toxicity. […] At necropsy, livers were harvested, lysed and subjected to liver enzyme assays as a test for potential toxic effects.

[12] = tested on: GFP-HER2-BM cells; experiment: Cell viability assay (CellTiter 96 / MTT), GFP-HER2-BM; type: cell-based; conditions: Homo sapiens, 120 h
Description: (§4) Effect of MBQ-167 on cell survival.

[13] = tested on: PAK; experiment: Western blot of PAK activity, MCF-7 cells; type: cell-based, human; conditions: MCF-7, 250 nM, 24 h; listed as MBQ-167
[14] = tested on: Rho; experiment: Rho activation pulldown (Rho binding domain of Rhotekin) and western blot, MDA-MB-231 cells; type: cell-based, human; conditions: MDA-MB-231, 250 nM; listed as MBQ-167
Experimental: Additionally, Rac, Cdc42, or […] activation was determined, by pulldowns using the P21-binding domain (PBD) of PAK, or Rho binding domain of Rhotekin as described (2, 16). The GTP bound active Rac, Cdc42, or Rho was detected by Western blot (N=3).

[15] = tested on: MDA-MB-231 cells; experiment: Cell cycle progression by flow cytometry (PI), MDA-MB-231; type: cell-based, human; conditions: 250 nM; listed as MBQ-167
Experimental: as §4
MDA-MB-231 cells were incubated with 0 or 250 nM MBQ-167 for 48 h and all cells (detached and attached) were stained with PI, as in (27). Cell cycle stage was analyzed using a four-color flow cytometer (FACSCalibur, BD Biosciences, San Jose, Calif.). A total of 20,000 events were analyzed for each sample. List-mode files were collected using Cell Quest software 3.3 and analyzed using the Flow Jo software vX.0.7 (BD Biosciences, San Jose, Calif.).

CCn1c2ccccc2c2cc(-n3nncc3-c3ccccc3)ccc21 [I-1, 9-ethyl-3-(5-phenyl-1H-1,2,3-triazol-1-yl)-9H-carbazole]
reduction of directed migration [1]: 60-70%
expression of pro-survival proteins Bcl-2, Bcl-xL, Mcl-1 [2]: significant decrease
cells losing polarity and assuming a rounded phenotype ([3]; 250 nM): ~70%
cell rounding / loss of polarity and detachment from the substratum ([3]; 500 nM, 24 h, listed as MBQ-167): ~90% and ~95%
concentration inducing loss of polarity ([3]; starting at six hours): ≥ 100 nM
reduction of cell viability ([4]; 24 h, listed as MBQ-167): 55%
cytotoxicity at […] ([4]; Homo sapiens, NCI-N87, 24 h, read-out: reduction of cell viability): 50%
effect on PAK activity (phospho-PAK) [5]: inhibits both PAK1 and PAK4 activities; also recorded: significantly decreases
cell rounding and detachment phenotype [6]: resistant
expression of c-Myc, Bcl-XL, Bcl-2 [7]: reduced expression
pro-apoptotic protein BAD [7]: concomitant increase
cell death ([8]; 1000 nM, 120 h, all cell types (MDA-MB-231, GFP-HER2-BM, MCF10A)): ~100%
GI50 ([8]; 120 h, listed as MBQ-167): 0.11 µM
GI50 ([8]; Homo sapiens, MDA-MB-231, 120 h, 120 h): ~0.13 µM
GI50 ([8]; Homo sapiens, MDA-MB-231, read-out: GI50 (μM) MDA-MB-231, MDA-MB-231): 0.128 µM
viability at 24 h, 5 µM ([9]; MDA-MB-231, GFP-HER2-BM, MCF-7 and MCF-10 cells): ~75%
viability at 24 h, 0.3 µM ([9]; MDA-MB-231 cells): 100%
LIMK (Y507/T508) and cofilin (S3) phosphorylation ([10]; 250 nM): both decreased
phosphorylation of PAK1 S144 ([10]; 250 nM, 24 h): dramatic increase
PAK1 and PAK2 phosphorylation at T423/T402 and S199/S192 ([10]; 250 nM, 24 h, detached population): inhibited
reduction of PAK activity compared to vehicle ([10]; attached population): ~25%
reduction of PAK activity compared to vehicle ([10]; detached cells): 90%
weight loss or phenotypic changes [11]: did not show any significant weight loss or phenotypic changes; also recorded: does not exert toxic effects
GI50 [12]: 150 nM
effect on PAK activity [13]: did not affect; also recorded: does not inhibit
effect on Rho activation [14]: did not affect; also recorded: does not affect; also recorded: without affecting
effect on cell cycle [15]: significantly arrested the cell cycle of MDA-MB-231 cells in the G2/M phase; also recorded: G2/M phase arrest
